Experimental data published in patent US10849901B2, “Arf6 inhibitors and methods of synthesis and use thereof” (Navigen, Inc., priority 2014, dated 2020).
Where two headings read alike, the source gives them in different places.

Target: Arf6 (Homo sapiens (Human), UniProt P62330)
Test: Fluorometric assay for Arf6 nucleotide exchange catalyzed by ARNO Sec7 domain (GTP-BODIPY FL)
Type: biochemical
Protocol: FIGS. 1A-1D: Fluorometric high throughput assay for Arf6 nucleotide exchange catalyzed by ARNO Sec7 domain. FIG. 1A: Principle of the assay. FIG. 1B: SDS-PAGE analysis of N-terminally His-tagged Arf6(14-175) and ARNO(50-255) purified from the E. coli cultures by immobilized metal affinity chromatography. FIG. 1C: Correlation between signal intensity and ARNO concentration. The assay was performed using 50 mM Tris-HCl, pH 7.5, 1 mM MgCl2, 0.01% TX-100, 1% DMSO, 50 nM GTP-BODIPY FL, supplemented with ARNO-Sec7 at indicated concentrations in the absence or in the presence of 0.2 μM Arf6-GDP. Fluorescence intensities were monitored using a Synergy 4 plate reader (BioTek) at the excitation and emission wavelengths of 490 nm and 520 nm, respectively. FIG. 1D: Time course of apparent inhibitory potency of GDP. The assay was performed in automated mode using a Matrix PlateMate liquid handler.
The primary biochemical assay uses a fluorometric assay for monitoring the replacement of bound nucleotide with a fluorogenic GTP derivative bearing a BODIPY FL moiety, allowing for the identification of compounds that can inhibit this exchange (see FIG. 1A). In certain embodiments, the methods disclosed herein may exploit the reduction of intramolecular fluorescence quenching of the modified nucleotide upon its binding to the target protein (see, e.g., McEwen D P, Gee K R, Kang H C, Neubig R R. Fluorescent BODIPY-GTP analogs: real-time measurement of nucleotide binding to G proteins. Anal Biochem. 2001 Apr. 1; 291(1): 109-17).
The fluorometric assay formatted for 96-well microtiter plates has passed quality control based on the following criteria: i) S/B ratio of 4-fold and Z′-factor of 0.61; ii) linear correlation between signal intensity and ARNO concentration (see FIG. 1C); iii) sufficiently reproducible inhibitory effects of the reference inhibitor GDP for assay durations up to at least 1 hour (see FIG. 1D); and iv) lack of apparent fluorescence quenchers among 400 randomly selected compounds. The assay is amenable to automation with a throughput of approximately 5,000 data points per 8 hours.

[1] = 20 nM Arf6 assay, read-out: IC50 (μM) 20 nM Arf6
[2] = 200 nM Arf6 assay, read-out: IC50 (μM) 200 nM Arf6

Chain of Arf6 (P62330 14-175): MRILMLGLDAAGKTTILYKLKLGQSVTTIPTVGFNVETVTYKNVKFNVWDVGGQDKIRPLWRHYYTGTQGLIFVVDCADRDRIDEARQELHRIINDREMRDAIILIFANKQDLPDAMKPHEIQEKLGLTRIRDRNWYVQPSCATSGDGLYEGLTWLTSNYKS

Structure (SMILES)	IC50 [1] [µM]	IC50 [2] [µM]	inhibition at 10 µM (20 nM assay, 10 μM concentration) [%]
O=c1cc(-c2ccc([N+](=O)[O-])cc2)[nH]c2c(-c3ccc(Cl)cc3)cnn12 [Compound 60]	–	3.2	–
CCNC(=O)Nc1ccc(-c2cc(=O)n3nc(C)c(-c4ccc(Cl)cc4)c3[nH]2)cc1 [Compound 97]	11	–	–
COc1ccc(-c2cc(=O)n3nc(Cc4ccccc4)c(-c4ccc(Cl)cc4)c3[nH]2)cc1 [Compound 83]	–	6.2	–
COc1ccc(-c2c(Cc3ccccc3)nn3c(=O)cc(-c4ccc([N+](=O)[O-])cc4)[nH]c23)cc1 [Compound 55]	–	3.1	–
Cc1nn2c(=O)cc(-c3ccc([N+](=O)[O-])cc3)[nH]c2c1-c1ccc(S(C)(=O)=O)cc1 [Compound 94]	8.8	–	–
Cc1nn2c(=O)cc(-c3ccc([N+](=O)[O-])cc3)[nH]c2c1C1CCCC1 [Compound 110]	19	–	–
CC(C)(C)c1nn2c(=O)cc(-c3cccc(S(C)(=O)=O)c3)[nH]c2c1-c1ccc(Cl)cc1 [Compound 87]	6.7	–	–
O=C1/C(=N/Nc2nc3ccccc3s2)C(c2ccccc2)=NN1c1nc(-c2ccccc2)cs1 [Compound 135]	16	–	–
O=c1cc(Cc2ccccc2)[nH]c2c(-c3ccc(Cl)cc3)c(Cc3ccccc3)nn12 [Compound 99]	–	11	–
O=c1c(-c2cccc3ccccc23)c(C(F)(F)F)oc2cc(O)ccc12 [Compound 140]	–	29	–
CC(C)(C)c1nn2c(=O)cc(-c3cccc(C(=O)O)c3)[nH]c2c1-c1ccc(Cl)cc1 [Compound 86]	6.6	–	–
CCS(=O)(=O)Nc1ccc(-c2cc(=O)n3nc(C)c(-c4ccc(Cl)cc4)c3[nH]2)cc1 [Compound 96]	10	–	–
COc1ccc(C(=O)Nc2cccc(/C=C3\C(=O)NC(=O)c4ccccc43)c2)cc1 [Compound 125]	6.5	–	–
N#Cc1c(SCc2cc(=O)[nH]c(=O)[nH]2)nc2c(c1-c1ccccc1)CC/C2=C\c1ccccc1 [Compound 117]	–	1.5	–
Cc1nn2c(=O)cc(-c3ccc(Cl)cc3)[nH]c2c1-c1ccc(F)cc1 [Compound 105]	–	15	–
CC(C)(C)c1nn2c(=O)cc(-c3cccnc3)[nH]c2c1-c1ccc(Cl)cc1 [Compound 84]	6.4	–	–
Cc1cccc(-n2c(/C=C/c3cccnc3)nc3ccccc3c2=O)c1 [Compound 122]	–	4.7	–
Cc1nn2c(=O)cc(-c3ccc([N+](=O)[O-])cc3)[nH]c2c1-c1ccc(OC(F)(F)F)cc1 [Compound 101]	13	–	–
O=C(O)c1ccccc1-c1cc(=O)n2nc(C(F)(F)F)c(-c3ccc(Cl)cc3)c2[nH]1 [Compound 92]	8.1	–	–
Cc1nn2c(=O)cc(C3CCCCC3)[nH]c2c1-c1ccc(Cl)cc1 [Compound 103]	14	–	–
Cc1nn2c(=O)cc(C3CCCC3)[nH]c2c1-c1ccc(Cl)cc1 [Compound 106]	16	–	–
CS(=O)(=O)c1ccc(-c2cc(=O)n3nc(C4CC4)c(-c4ccc(Cl)cc4)c3[nH]2)cc1 [Compound 91]	7.9	–	–
CCOc1ccc(-c2nn(-c3ccccc3)cc2/C=C2\SC(=S)N(CCC(=O)O)C2=O)cc1C [Compound 116]	–	1.4	–
Cc1ccn2c(=O)cc(CSc3nc(C)cc(=O)[nH]3)nc2c1 [Compound 131]	11	–	–
N#Cc1ccc(-c2cc(=O)c3nc(C4CC4)c(-c4ccc(Cl)cc4)n3[nH]2)cc1 [Compound 108]	16	–	–
O=c1cc(-c2ccccc2)[nH]c2c(-c3ccccc3)c(Cc3ccccc3)nn12 [Compound 95]	–	9.4	–
O=c1cc(-c2ccc([N+](=O)[O-])cc2)[nH]c2c(-c3ccccc3)c(Cc3ccccc3)nn12 [Compound 59]	–	3.2	–
CCCCC1CCCN1c1cc(C2CCNCC2)ncn1 (centres unmarked) [Compound 144]	–	–	~35
CC(C)(C)c1ccc(S(=O)(=O)Nc2ccc(O)c3ccccc23)cc1 [Compound 126]	–	6.7	–
COc1ccc(Cc2nn3c(=O)cc(-c4ccc([N+](=O)[O-])cc4)[nH]c3c2-c2ccccc2)cc1 [Compound 64]	–	3.6	–

The remaining lines, values ahead:

IC50 [1] [µM]	IC50 [2] [µM]	inhibition at 10 µM (20 nM assay, 10 μM concentration) [%]	Structure (SMILES)
2.5	–	–	CC(C)CC(=O)Nc1cccc(-c2cc(=O)n3nc(C(F)(F)F)c(-c4ccc(Cl)cc4)c3[nH]2)c1 [Compound 50]
6	–	–	Cc1nn2c(=O)cc(-c3ccc([N+](=O)[O-])cc3)[nH]c2c1Cc1ccc(Cl)cc1 [Compound 81]
3.7	2.8	–	NC(=O)c1ccc(-c2cc(=O)n3nc(Cc4ccccc4)c(-c4ccc(Cl)cc4)c3[nH]2)cc1 [Compound 66]
1.4	–	–	O=c1cc(-c2ccc([N+](=O)[O-])cc2)[nH]c2c(-c3ccc(Cl)c(Cl)c3)c(C3CC3)nn12 [Compound 27]
2.8	4.8	–	O=c1cc(-c2ccc([N+](=O)[O-])cc2)[nH]c2c(-c3ccc(Cl)cc3)c(Cc3cccnc3)nn12 [Compound 52]
0.25	–	–	O=c1cc(-c2cccc(-c3cccnc3)c2)[nH]c2c(-c3ccc(Cl)c(Cl)c3)c(C(F)(F)F)nn12 [Compound 1]
1.2	–	–	Fc1ccc(C2=CCN(c3nc(-c4ccncc4)nc4c3CNC4)CC2)cc1 [Compound 142]
1.6	2.6	–	O=c1cc(-c2ccc([N+](=O)[O-])cc2)[nH]c2c(-c3ccc(Cl)cc3)c(C(F)(F)F)nn12 [Compound 33]
2.4	3.2	–	O=c1cc(-c2ccc([N+](=O)[O-])cc2)[nH]c2c(-c3ccc(Cl)cc3)c(Cc3ccncc3)nn12 [Compound 46]
0.96	–	–	Cc1ccc(-c2cccc(-c3cc(=O)n4nc(C(F)(F)F)c(-c5ccc(Cl)cc5)c4[nH]3)c2)cn1 [Compound 12]
1.1	–	–	CN(C)c1ccc(-c2cccc(-c3cc(=O)n4nc(C(F)(F)F)c(-c5ccc(Cl)cc5)c4[nH]3)c2)cn1 [Compound 19]
2.1	–	–	Cc1nn2c(=O)cc(-c3ccc(NC(=O)NCc4ccccc4)cc3)[nH]c2c1-c1ccc(Cl)cc1 [Compound 42]
1.1	–	–	O=c1cc(-c2ccc(-c3cccnc3)cc2)[nH]c2c(-c3ccc(Cl)cc3)c(C(F)(F)F)nn12 [Compound 17]
5.9	–	–	O=c1cc(-c2ccc([N+](=O)[O-])cc2)[nH]c2c(-c3ccc(Cl)cc3)c(CN3CCOCC3)nn12 [Compound 80]
1.3	1.4	–	O=c1c(Cl)c(-c2ccc([N+](=O)[O-])cc2)[nH]c2c(-c3ccc(Cl)cc3)c(Cc3ccccc3)nn12 [Compound 24, 2-benzyl-6-chloro-3-(4-chlorophenyl)-5-(4-nitrophenyl)-4H-pyrazolo[1,5-a]pyrimidin-7-one]
5.5	–	–	N#Cc1cccc(-c2cc(=O)n3nc(C4CC4)c(-c4ccc(Cl)cc4)c3[nH]2)c1 [Compound 79]

IC50 [1] [µM]	IC50 [2] [µM]	inhibition at 10 µM (20 nM assay, 10 μM concentration) [%]	Structure (SMILES)
4.1	–	–	COC(=O)c1ccc(-c2cc(=O)n3nc(C4CC4)c(-c4ccc(Cl)cc4)c3[nH]2)cc1 [Compound 71]
1.1	–	–	N#Cc1c(=O)n(-c2ccc(Cl)cc2)nc2c(=O)n(N)c(-c3ccccc3Cl)cc12 [Compound 114]
5.4	–	–	O=C1NC(=O)c2ccccc2/C1=C/c1cnn(Cc2ccccc2)c1 [Compound 124]
0.58	–	–	O=c1cc(-c2ccc([N+](=O)[O-])cc2)[nH]c2c(-c3ccc(Cl)c(Cl)c3)c(-c3ccccc3)nn12 [Compound 5]
1.1	–	–	O=c1cc(-c2ccc([N+](=O)[O-])cc2)[nH]c2c(-c3cccc4ccccc34)c(Cc3ccccc3)nn12 [Compound 20]
2.1	–	–	Cc1nn2c(=O)cc(-c3ccc([N+](=O)[O-])cc3)[nH]c2c1-c1cc(Cl)cc(Cl)c1 [Compound 43]
0.84	1.6	–	O=c1cc(Cc2ccccc2)[nH]c2c(-c3ccc(Cl)c(Cl)c3)c(C(F)(F)F)nn12 [Compound 9]
5.1	–	–	O=c1cc(-c2ccc([N+](=O)[O-])cc2)[nH]c2c(-c3ccc(Cl)cc3)c(C3CCOCC3)nn12 [Compound 77]
0.96	–	–	O=c1cc(-c2ccc([N+](=O)[O-])cc2)[nH]c2c(-c3ccc(Cl)cc3)c(-c3ccccc3)nn12 [Compound 11]
4.2	–	–	Cc1nn2c(=O)cc(-c3ccc([N+](=O)[O-])cc3)[nH]c2c1-c1ccc(Cl)c(F)c1 [Compound 73]
3.8	–	–	Cc1nn2c(=O)cc(-c3ccc(NS(=O)(=O)Cc4ccccc4)cc3)[nH]c2c1-c1ccc(Cl)cc1 [Compound 68]
1.2	–	–	O=c1cc(-c2cccc([N+](=O)[O-])c2)[nH]c2c(-c3ccc(Cl)cc3)c(C(F)(F)F)nn12 [Compound 21]
1.4	–	–	CC(c1ccccc1)c1nn2c(=O)cc(-c3ccc([N+](=O)[O-])cc3)[nH]c2c1-c1ccc(Cl)cc1 (centres unmarked) [Compound 28]
1.5	3.3	–	O=c1cc(-c2ccccc2)[nH]c2c(-c3ccc(Cl)cc3)c(Cc3ccccc3)nn12 [Compound 29]
1.4	–	–	COc1cc(-c2c(C)nn3c(=O)cc(-c4ccc([N+](=O)[O-])cc4)[nH]c23)ccc1Cl [Compound 26]
